Data on 1 compound can be found in ChEMBL document CHEMBL3612061, “Imidazopyridines as a source of biological activity and their pharmacological potentials-Infrared and Raman spectroscopic evidence of their content in pharmaceuticals and plant materials” (Bioorg Med Chem, 2015).

The test relates to Vaccinia virus. Kind of test: Antiviral activity against Vaccinia virus assessed as protection against virus-induced cytopathogenic effect by cell based assay. The format is functional. Particulars: Orthopoxvirus vaccinia; read-out: ID50 (the source's name). (Protection from cytopathic effect is a common read-out in antiviral testing.)

In brackets after ≈: the same amount, converted by molar mass.

Take `Nc1nccc2c1ncn2C1C=C(CO)C(O)C1O` (stereo unspecified) [3-DEAZANEPLANOCIN A]: the IC50 was 0.02 µg/mL (≈ 0.0763 µM).
